The record followed here is PubChem BioAssay AID330 (DTP/NCI, 2004).

The structures appear in SMILES notation. Where “and” joins values, the source holds several entries; their conditions need not be identical. Equal values may be shown once. Inconclusive results and toxic doses are left out.

The assay concerns P388 leukemia ip, CD2F1 mice, survival T/C. In words: NCI In Vivo Anticancer Drug Screen. Data for tumor model P388 Leukemia (intraperitoneal) in CD2F1 (CDF1) mice. The note with it: endpoint: median survival time, higher = longer survival. In short, it runs like this:
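Mice carrying the transplanted tumor received test compound or vehicle. Survival was recorded in each group, and the value is the treated-group measurement divided by that of the vehicle-treated control group.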

[1] abbreviates: dose: 50.0 mg/kg/injection, schedule: Q01DX005 (ip), vehicle: Klucel (hydroxypropylcellulose) (HPC).
The mark [2] stands for this setting: dose: 100.0 mg/kg/injection, schedule: Q01DX005 (ip), vehicle: Klucel (hydroxypropylcellulose) (HPC).
Where [3] appears, read: dose: 200.0 mg/kg/injection, schedule: Q01DX005 (ip), vehicle: Klucel (hydroxypropylcellulose) (HPC).
Setting [4] is: dose: 50.0 mg/kg/injection, schedule: Q01DX009 (ip), vehicle: Klucel (hydroxypropylcellulose) (HPC).
Setting [5] is: dose: 100.0 mg/kg/injection, schedule: Q01DX009 (ip), vehicle: Klucel (hydroxypropylcellulose) (HPC).

Turning to `C=C1C(O)CC2C(O)C3(C)CCC(C)(C)C3C12O` (stereo not given), the T/C was 106 % of control (dose: 18.75 mg/kg/injection, schedule: Q01DX009 (ip), vehicle: other); 98 % of control (dose: 37.5 mg/kg/injection, schedule: Q01DX009 (ip), vehicle: other); 100 % of control (dose: 75.0 mg/kg/injection, schedule: Q01DX009 (ip), vehicle: other); 93 % of control (dose: 150.0 mg/kg/injection, schedule: Q01DX009 (ip), vehicle: other).
On to `CC[C@@]1(O)CC(OC2CC(N3CCOCC3)C(O)C(C)O2)c2c(O)c3c(c(O)c2[C@H]1O)C(=O)c1cccc(O)c1C3=O` (stereo not given in full), for which the T/C (dose: 0.89 mg/kg/injection, schedule: Q04DX003 (iv), vehicle: saline) was 163 % of control; the T/C (dose: 1.33 mg/kg/injection, schedule: Q04DX003 (iv), vehicle: saline) is 186 % of control; the T/C (dose: 2.0 mg/kg/injection, schedule: Q04DX003 (iv), vehicle: saline) was 209 % of control; the T/C (dose: 3.0 mg/kg/injection, schedule: Q04DX003 (iv), vehicle: saline) is 242 % of control; the T/C (dose: 4.5 mg/kg/injection, schedule: Q04DX003 (iv), vehicle: saline) is 113 % of control.
On to `Clc1c(Cl)c(C[P+](CCP(c2ccccc2)c2ccccc2)(c2ccccc2)c2ccccc2)c(Cl)c(Cl)c1C[P+](CCP(c1ccccc1)c1ccccc1)(c1ccccc1)c1ccccc1`, for which, under “dose: 12.5 mg/kg/injection, schedule: Q01DX009 (ip), vehicle: saline with Tween-80”, the T/C was 120 % of control.
As to `N#CC1(C#N)C2CCCCC21` (stereo not given), the T/C by setting is: (dose: 3.75 mg/kg/injection, schedule: Q01DX005 (ip), vehicle: saline with Tween-80) 107 % of control; (dose: 7.5 mg/kg/injection, schedule: Q01DX005 (ip), vehicle: saline with Tween-80) 100 % of control; (dose: 15.0 mg/kg/injection, schedule: Q01DX005 (ip), vehicle: saline with Tween-80) 96 % of control.
`Clc1ccc2ccc3ccccc3c2n1`: the T/C is 101 % of control (dose: 12.5 mg/kg/injection, schedule: Q01DX009 (ip), vehicle: saline); 102 % of control (dose: 25.0 mg/kg/injection, schedule: Q01DX009 (ip), vehicle: saline); 101 % of control and 94 % of control (dose: 50.0 mg/kg/injection, schedule: Q01DX009 (ip), vehicle: saline).
`Nc1nc(N)c2c(ccc3nc(-c4ccccc4)c(-c4ccccc4)nc32)n1`: the T/C (dose: 100.0 mg/kg/injection, schedule: Q01DX001 (ip), vehicle: saline with Tween-80) is 87 % of control and the T/C (dose: 200.0 mg/kg/injection, schedule: Q01DX001 (ip), vehicle: saline with Tween-80) is 90 % of control.
As for `CCc1nnc2c(C)c(C)nc(C)n12`, the T/C is, setting by setting: (dose: 100.0 mg/kg/injection, schedule: Q04DX003 (ip), vehicle: saline with Tween-80) 94 % of control; (dose: 200.0 mg/kg/injection, schedule: Q04DX003 (ip), vehicle: saline with Tween-80) 100 % of control.
As for `CCCCCCCCC1OCN2CC(CC)CCC12` (stereo not given), the T/C runs as follows: (dose: 50.0 mg/kg/injection, schedule: Q01DX005 (ip), vehicle: saline) 107 % of control; (dose: 100.0 mg/kg/injection, schedule: Q01DX005 (ip), vehicle: saline) 108 % of control; (dose: 200.0 mg/kg/injection, schedule: Q01DX005 (ip), vehicle: saline) 108 % of control.
For the molecule `COc1cc2c3c(c1OC)-c1[nH]c4ccccc4c1C1CCCN(CC2)C31` (stereo not given), the T/C is, setting by setting: (dose: 60.0 mg/kg/injection, schedule: Q01DX005 (ip), vehicle: Klucel (hydroxypropylcellulose) (HPC)) 95 % of control; (dose: 120.0 mg/kg/injection, schedule: Q01DX005 (ip), vehicle: Klucel (hydroxypropylcellulose) (HPC)) 96 % of control; (dose: 240.0 mg/kg/injection, schedule: Q01DX005 (ip), vehicle: Klucel (hydroxypropylcellulose) (HPC)) 98 % of control.
`CCn1cc(C(=O)O)c(=O)c2ccc(-c3cn[nH]c3C)nc21`: the T/C is, setting by setting: (dose: 50.0 mg/kg/injection, schedule: Q04DX003 (ip), vehicle: suspension in saline) 106 % of control; (dose: 100.0 mg/kg/injection, schedule: Q04DX003 (ip), vehicle: suspension in saline) 107 % of control; (dose: 200.0 mg/kg/injection, schedule: Q04DX003 (ip), vehicle: suspension in saline) 106 % of control.
`COc1ccc2c(c1)c(CO)c(CO)c[n+]2[O-]`: the T/C was 100 % of control (dose: 60.0 mg/kg/injection, schedule: Q01DX005 (ip), vehicle: saline with Tween-80); 96 % of control (dose: 120.0 mg/kg/injection, schedule: Q01DX005 (ip), vehicle: saline with Tween-80); 102 % of control (dose: 240.0 mg/kg/injection, schedule: Q01DX005 (ip), vehicle: saline with Tween-80).
With `CCOC(=O)c1c(N)sc2c1CCC2`, the T/C (dose: 100.0 mg/kg/injection, schedule: Q01DX001 (ip), vehicle: saline sonified) was 100 % of control; the T/C (dose: 200.0 mg/kg/injection, schedule: Q01DX001 (ip), vehicle: saline sonified) is 95 % of control; the T/C (dose: 400.0 mg/kg/injection, schedule: Q01DX001 (ip), vehicle: saline sonified) is 100 % of control.
For the molecule `N#CNC(=S)SCC(N)=O`, the T/C under setting [1] was 100 % of control, the T/C under setting [2] is 100 % of control and the T/C under setting [3] was 102 % of control.
Take `Cc1ccc(S(=O)c2cc(C(C)(C)C)cc(C(C)(C)C)c2O)cc1` (stereo not given): the T/C reads like this: (dose: 50.0 mg/kg/injection, schedule: Q01DX009 (ip), vehicle: saline with Tween-80) 103 % of control; (dose: 100.0 mg/kg/injection, schedule: Q01DX009 (ip), vehicle: saline with Tween-80) 110 % of control; (dose: 200.0 mg/kg/injection, schedule: Q01DX009 (ip), vehicle: saline with Tween-80) 88 % of control.
`Cc1ccc(NC(=O)NNC(=O)CSC2CCc3ccccc32)c(C)c1` (stereo not given): the T/C under setting [1] is 92 % of control, the T/C under setting [2] was 92 % of control and the T/C under setting [3] is 90 % of control.
As to `CCCC[n+]1c(/C=C\c2c(OC)cc(OC)cc2OC)ccc2ccccc21`, the T/C is, setting by setting: (dose: 0.19 mg/kg/injection, schedule: Q01DX009 (ip), vehicle: Klucel (hydroxypropylcellulose) (HPC)) 115 % of control; (dose: 0.39 mg/kg/injection, schedule: Q01DX009 (ip), vehicle: Klucel (hydroxypropylcellulose) (HPC)) 115 % of control and 122 % of control; (dose: 0.78 mg/kg/injection, schedule: Q01DX009 (ip), vehicle: Klucel (hydroxypropylcellulose) (HPC)) 105 % of control.
Regarding `NOCCCCCON`, the T/C by setting is: under setting [4], 100 % of control; under setting [5], 106 % of control.
In the case of `COC1/C=C\OC2(C)Oc3c(C)c(O)c4c(c3C2=O)C2=NC(C)(C)N(c3ccccc3)C2=C(NC(=O)/C(C)=C\C=C\C(C)C(O)C(C)C(O)C(C)C(OC(C)=O)C1C)C4=O` (stereo not given), the T/C is, setting by setting: (dose: 25.0 mg/kg/injection, schedule: Q01DX009 (ip), vehicle: Klucel (hydroxypropylcellulose) (HPC)) 100 % of control; under setting [4], 103 % of control; under setting [5], 98 % of control; (dose: 200.0 mg/kg/injection, schedule: Q01DX009 (ip), vehicle: Klucel (hydroxypropylcellulose) (HPC)) 107 % of control.
For the molecule `CC(=O)Oc1n[nH]c(=O)n1-c1ccccc1`, the T/C was 107 % of control (dose: 50.0 mg/kg/injection, schedule: Q01DX005 (ip), vehicle: Klucel + Tween-80); 107 % of control (dose: 100.0 mg/kg/injection, schedule: Q01DX005 (ip), vehicle: Klucel + Tween-80); 98 % of control (dose: 200.0 mg/kg/injection, schedule: Q01DX005 (ip), vehicle: Klucel + Tween-80).
Turning to `CCOP1(=O)OC(c2ccccc2)C(C)N1C` (stereo not given), the T/C is, setting by setting: under setting [1], 100 % of control; under setting [2], 104 % of control; under setting [3], 107 % of control.
On to `CC(=O)Oc1c2occc2cc2ccc(=O)oc12`, for which the T/C reads like this: (dose: 50.0 mg/kg/injection, schedule: Q01DX005 (ip), vehicle: saline with Tween-80) 99 % of control; (dose: 100.0 mg/kg/injection, schedule: Q01DX005 (ip), vehicle: saline with Tween-80) 98 % of control; (dose: 200.0 mg/kg/injection, schedule: Q01DX005 (ip), vehicle: saline with Tween-80) 100 % of control.
`C=CCn1c(NCCN(CC)CC)nc2ccc(Cl)cc2c1=O`: the T/C is, setting by setting: (dose: 12.5 mg/kg/injection, schedule: Q01DX009 (ip), vehicle: saline sonified) 100 % of control; (dose: 25.0 mg/kg/injection, schedule: Q01DX009 (ip), vehicle: saline sonified) 104 % of control; (dose: 50.0 mg/kg/injection, schedule: Q01DX009 (ip), vehicle: saline sonified) 104 % of control.
